Test results reported in patent publication US6372940B1, “Process for the preparation of non-hygroscopic salts of L(−)-carnitine” (Sigma-Tau Industrie Farmaceutiche Riunite S.p.A, priority 1999, dated 2002).

Assays:
[1] = Tapped density of the granulate (U.S. Pharmacopoeia method); type: physicochemical; conditions: for tapped density of the granulate: product of the humid melting process of the invention, USP 23 NF 18 method
From the text: It is in fact known that an inadequately low density (for example, for L(−)-carnitine acid fumarate, a tapped density value below 0.7 g/mL) provides a too light and flaky product which involves serious processability problems. The bulk density is not a reliable parameter for granulated or powdery products, in that even imperceptible perturbations of the test sample can give rise to remarkably different bulk density values. For the characterization of the density of said materials the tapped density is preferably used, which is the limit density obtained after tapping down the material by subjecting a graduated cylinder containing the granulate or powder to strokes, namely by hoisting the cylinder to a fixed height then dropping it for a fixed number of times. The tapped density is usually determined according to the method described in U.S. Pharmacopoeia, National Formulary, Supplement, USP 23, NF 18, Nov. 15, 1997, pages 3976-3977. Said method is herein incorporated by reference. The material is passed through a 1 mm (n. 18 mesh) sieve to crush any agglomerates formed during storage. About 100 g (M) of the test material are placed without tapping down in a 250 mL graduated cylinder. Using a suitable device, the cylinder is hoisted then dropped under the action of its own weight, from a height of 14+2 mm, with a 300 times/minute fall frequency. The volume of the material after a first 500 fall cycle is then measured. […] The tapped density, in g/mL, is expressed by the formula: M/Vf.

[2] = Hygroscopicity and storage behaviour of the granulate; type: physicochemical; conditions: ground to the desired particle size

Compound	tapped density of the granulate [1]	hygroscopicity of the granulate [2]	stability of the granulate in time (packing and/or aggregation) [2]	Physico-chemical characteristics of the final compound ([1]; prepared in the presence of a crystallization initiator)
C[N+](C)(C)C[C@H](O)CC(=O)O.C[N+](C)(C)C[C@H](O)CC(=O)O.O=C([O-])C(O)C(O)C(=O)[O-] [Example 3, L(−)-carnitine Tartrate (2:1)]	0.83 g/mL	–	–	–
L(−)-carnitine Acid Fumarate [Example 1]	0.84 g/mL	non-hygroscopic	remained unchanged in time without undergoing packing and/or aggregation	–
L(−)-carnitine Acid Fumarate [Example 2]	–	–	–	the same as those obtained in the preparation of Example 1
